# In US9388195B2, “Heterocyclic compound” (Takeda Pharmaceutical Company Limited, priority 2010, dated 2016):
# Counter-ions that a name gives are not always drawn.
# Biological target: T1, Cdc7/Dbf4 complex (Homo sapiens, UniProt O00311)
# T1 construct: Full-length Cdc7 co-expressed with full-length Dbf4; purchased Carna Biosciences (Kobe)
# Assay: Measurement of Cdc7 kinase inhibitory activity (Transcreener ADP HTRF assay)
# Assay type: biochemical
# Conditions: read-out: inhibitory rate (%) at 1 μM
# Description: Full-length Cdc7 co-expressed with full-length Dbf4 was purchased from Carna Biosciences (Kobe). The enzyme activity of Cdc7/Dbf4 complex was detected by homogeneous time-resolved fluorescence method Transcreener ADP assay (Cisbio Inc., MA, U.S.A.). […] Free ADP produced by ATP hydrolysis was detected by Eu^3+-Cryptate-labeled anti-ADP monoclonal antibody competitively with d2-labeled ADP, and the production amount thereof was measured. The obtained time-resolved fluorescence resonance energy transfer signal was measured by EnVision (Perkin Elmer Inc., MA, U.S.A.). The inhibitory rate (%) of the test compound to Cdc7 was calculated by the following formula. Inhibitory rate(%)=(1−(count of test compound-blank)[…](control-blank))×100
# The count of the Cdc7/Dbf4 reaction mixture under compound-free conditions was taken as the control, and that under compound-free and Cdc7/Dbf4-free conditions was taken as the blank.
# T1 sequence (O00311 whole entry): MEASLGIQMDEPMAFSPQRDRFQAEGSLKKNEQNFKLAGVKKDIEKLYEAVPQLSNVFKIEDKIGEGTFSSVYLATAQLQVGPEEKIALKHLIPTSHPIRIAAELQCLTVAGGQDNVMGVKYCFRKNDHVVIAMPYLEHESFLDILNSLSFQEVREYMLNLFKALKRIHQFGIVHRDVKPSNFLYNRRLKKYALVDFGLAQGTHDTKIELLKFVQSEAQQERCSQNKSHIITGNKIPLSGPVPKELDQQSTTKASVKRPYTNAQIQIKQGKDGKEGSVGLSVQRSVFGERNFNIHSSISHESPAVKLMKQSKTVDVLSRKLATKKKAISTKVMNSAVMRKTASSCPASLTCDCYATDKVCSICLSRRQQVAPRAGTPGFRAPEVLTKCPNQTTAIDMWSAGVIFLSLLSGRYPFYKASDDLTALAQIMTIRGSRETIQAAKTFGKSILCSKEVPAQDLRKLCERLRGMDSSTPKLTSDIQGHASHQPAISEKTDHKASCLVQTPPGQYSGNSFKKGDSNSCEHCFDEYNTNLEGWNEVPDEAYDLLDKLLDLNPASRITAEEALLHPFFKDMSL
# T1 sequence (Q9UBU7 whole entry partner): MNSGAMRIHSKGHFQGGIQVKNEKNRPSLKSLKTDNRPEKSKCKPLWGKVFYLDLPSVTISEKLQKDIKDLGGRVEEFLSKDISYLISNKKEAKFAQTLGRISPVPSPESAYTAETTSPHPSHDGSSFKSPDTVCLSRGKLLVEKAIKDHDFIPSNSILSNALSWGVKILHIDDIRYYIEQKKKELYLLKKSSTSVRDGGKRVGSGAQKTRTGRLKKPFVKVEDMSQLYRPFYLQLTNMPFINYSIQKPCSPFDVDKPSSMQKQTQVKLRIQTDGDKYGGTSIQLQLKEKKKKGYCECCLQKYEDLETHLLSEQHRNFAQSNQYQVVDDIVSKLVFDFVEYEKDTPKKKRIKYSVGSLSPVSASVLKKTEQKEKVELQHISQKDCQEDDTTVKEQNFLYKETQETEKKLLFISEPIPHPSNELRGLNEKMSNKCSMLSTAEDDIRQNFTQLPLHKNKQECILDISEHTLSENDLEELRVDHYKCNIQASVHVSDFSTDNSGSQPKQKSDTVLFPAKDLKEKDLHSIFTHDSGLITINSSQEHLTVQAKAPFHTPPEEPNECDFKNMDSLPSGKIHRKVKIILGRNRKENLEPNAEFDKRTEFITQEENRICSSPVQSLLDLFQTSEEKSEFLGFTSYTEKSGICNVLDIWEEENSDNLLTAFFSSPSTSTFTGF
row,Structure (SMILES),inhibition at 1 µM
1,"Cc1[nH]ncc1-c1cc2nc([C@H]3NCC[C@@H]3C)[nH]c(=O)c2s1 [Example 140, 6-(5-methyl-1H-pyrazol-4-yl)-2-[(2S,3S)-3-methylpyrrolidin-2-yl]thieno[3,2-d]pyrimidin-4 (3H)-one dihydrochloride]",100%

# Same assay, conditions: read-out: inhibitory rate (%) at 1 μM, test compound 1 μM; Cdc7/Dbf4, 1.0 μm ATP, 10 μg/ml MCM2
row,inhibition at 1 µM,Structure (SMILES)
1,96.7%,"Cc1[nH]ncc1-c1cc2nc([C@]3(C)CCCN3)[nH]c(=O)c2s1 [Example 103, 6-(5-methyl-1H-pyrazol-4-yl)-2-[(2S)-2-methylpyrrolidin-2-yl]thieno[3,2-d]pyrimidin-4 (3H)-one dihydrochloride]"
2,91%,"Cc1[nH]ncc1-c1cc2nc(C3CC=CCN3)[nH]c(=O)c2s1 (stereo not shown) [Example 136, 6-(5-methyl-1H-pyrazol-4-yl)-2-(1,2,3,6-tetrahydropyridin-2-yl)thieno[3,2-d]pyrimidin-4 (3H)-one dihydrochloride]"
3,103%,"Cc1[nH]ncc1-c1cc2nc([C@@H]3CCCN3)[nH]c(=O)c2s1 [Example 11, 6-(5-methyl-1H-pyrazol-4-yl)-2-[(2S)-pyrrolidin-2-yl]thieno[3,2-d]pyrimidin-4 (3H)-one monotrifluoroacetate]"
4,109%,"Cc1[nH]ncc1-c1cc2nc(C3CCCCN3)[nH]c(=O)c2s1 (stereo not shown) [Example 71, 6-(5-methyl-1H-pyrazol-4-yl)-2-(piperidin-2-yl)thieno[3,2-d]pyrimidin-4 (3H)-one dihydrochloride]"

# Same assay, conditions: test compound 1 μM; Cdc7/Dbf4, 1.0 μm ATP, 10 μg/ml MCM2; read-out: inhibitory rate (%) at 1 μM
row,Structure (SMILES),inhibition at 1 µM
1,"O=c1[nH]c(C23CC(CN2)C3)nc2cc(-c3cn[nH]c3C(F)(F)F)sc12 [Example 165, 2-(2-azabicyclo[2.1.1]hex-1-yl)-6-[5-(trifluoromethyl)-1H-pyrazol-4-yl]thieno[3,2-d]pyrimidin-4 (3H)-one dihydrochloride]",105%
2,"O=c1[nH]c(CN2CCCC2)nc2cc(-c3cn[nH]c3C(F)(F)F)sc12 [Example 143, 2-(pyrrolidin-1-ylmethyl)-6-[5-(trifluoromethyl)-1H-pyrazol-4-yl]thieno[3,2-d]pyrimidin-4 (3H)-one]",122%
3,"Cc1[nH]ncc1-c1cc2nc([C@H]3NC[C@H]4C[C@H]43)[nH]c(=O)c2s1 (relative stereo) [Example 87, 2-[(1R*,2S*,5S*)-3-azabicyclo[3.1.0]hex-2-yl]-6-(5-methyl-1H-pyrazol-4-yl)thieno[3,2-d]pyrimidin-4 (3H)-one dihydrochloride]",107%
4,"Cc1[nH]ncc1-c1cc2nc([C@H]3NC[C@H]4C[C@H]43)[nH]c(=O)c2s1 [Example 113, 2-[(1R,2S,5S)-3-azabicyclo[3.1.0]hex-2-yl]-6-(5-methyl-1H-pyrazol-4-yl)thieno[3,2-d]pyrimidin-4 (3H)-one dihydrochloride]",124%

# Continued, values first:
row,inhibition at 1 µM,Structure (SMILES)
1,106%,"Cc1[nH]ncc1-c1cc2nc(C3CCCC3N)[nH]c(=O)c2s1 (stereo not shown) [Example 139, 2-(2-aminocyclopentyl)-6-(5-methyl-1H-pyrazol-4-yl)thieno[3,2-d]pyrimidin-4 (3H)-one dihydrochloride]"
2,86.2%,"Cc1[nH]ncc1-c1cc2nc([C@@H]3C[C@@H]4CCCC[C@@H]4N3)[nH]c(=O)c2s1 [Example 78, 6-(5-methyl-1H-pyrazol-4-yl)-2-[(2S,3aS,7aS)-octahydro-1H-indol-2-yl]thieno[3,2-d]pyrimidin-4 (3H)-one]"
3,98.4%,"Cc1[nH]ncc1-c1cc2nc([C@@H]3C[C@@H](F)CN3)[nH]c(=O)c2s1 [Example 23, 2-[(2S,4R)-4-fluoropyrrolidin-2-yl]-6-(5-methyl-1H-pyrazol-4-yl)thieno[3,2-d]pyrimidin-4 (3H)-one dihydrochloride]"
4,107%,"Cc1[nH]ncc1-c1cc2nc(CN3CC=CCC3)[nH]c(=O)c2s1 [Example 75, 2-(3,6-dihydropyridin-1(2H)-ylmethyl)-6-(5-methyl-1H-pyrazol-4-yl)thieno[3,2-d]pyrimidin-4 (3H)-one]"
